In US20110086862A1, “POLYMORPHS OF PARDOPRUNOX” (priority 2009, published 2011):

Tests used:
[1] = target: T1, serotonin 5-HT1A receptor (Homo sapiens, UniProt P08908); conditions: cited from earlier work
T1 sequence (P08908 1-422): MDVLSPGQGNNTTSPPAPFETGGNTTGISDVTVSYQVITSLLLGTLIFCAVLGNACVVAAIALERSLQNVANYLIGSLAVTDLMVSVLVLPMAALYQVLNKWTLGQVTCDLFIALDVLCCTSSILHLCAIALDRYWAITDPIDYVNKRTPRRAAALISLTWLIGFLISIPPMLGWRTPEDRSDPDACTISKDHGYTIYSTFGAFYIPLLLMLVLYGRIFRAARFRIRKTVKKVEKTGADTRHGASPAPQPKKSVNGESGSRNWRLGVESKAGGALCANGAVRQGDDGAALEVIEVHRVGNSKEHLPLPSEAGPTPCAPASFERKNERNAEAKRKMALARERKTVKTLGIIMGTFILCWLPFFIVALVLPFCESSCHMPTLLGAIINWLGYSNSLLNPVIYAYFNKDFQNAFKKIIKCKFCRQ

[2] = target: dopamine-D2 receptor (Homo sapiens, UniProt P14416); conditions: cited from earlier work
[3] = Slurry experiments of α- and β-polymorphs (crystal modification by XRPD); type: physicochemical; conditions: for Crystal modifications by XRPD, slurry experiment: before/after seeding not distinguished; for Crystal modifications by XRPD, slurry experiment, after seeding: seeded with 15-20 mg of the other form, shaken 1 week; for Crystal modifications by XRPD, slurry experiment, before seeding: shaken 1 day
Method: (§1) Relative stability of the α- and β-polymorphs of pardoprunox were determined by ageing and slurry experiments in six different solvents. The crystal modification of the solid material was determined using XRPD. For mixtures, amounts of α and β were determined using semi-quantitative calculations, based on the ratio of peak heights of specific reflections of the α- and β-polymorphs, respectively. A peak at 23.3° 2θwas used for α-polymorphs, and one at 15.3° 2θfor β-polymorphs. Due to effects of sample preparation, crystal orientation and differences in response factors, this estimation is semi-quantitative.
(§2) For slurry experiments, two series of saturated solutions of a specific polymorphic (α or β) form were shaken at 375 rpm for one day in six different solvents, one series at ambient temperature and one at 50° C. 40 ml tubes were filled with 0.5 g of the appropriate polymorphic form, and 25 ml of solvent (or mixture). After 1 day about 2.5 ml of sample was taken from each tube, filtered and dried at ambient temperature under reduced pressure. Subsequently the crystal modification was determined. After the samples were taken each tube was seeded with 15-20 mg of the other polymorphic form. Then, all tubes were shaken for 1 week at 375 rpm at ambient temperature or at 50° C. Finally, the precipitate was filtered and dried at ambient temperature under reduced pressure and the crystal modification was determined.

[4] = Ageing experiments of α- and β-polymorphs (crystal modification by XRPD); type: physicochemical; conditions: shaken one week
Method: as §1
(§3) For ageing experiments, two series of saturated solutions of a specific polymorphic (α or β) form were shaken at 375 rpm, for one week, in six different solvents, one series at ambient temperature (ca. 20° C.) and one at 50° C. 40 ml tubes were filled with 0.5 g of the appropriate polymorphic form, and 25 ml of solvent (or mixture). After a week the precipitate was filtered and dried at ambient temperature under reduced pressure.

[5] = Stability tests: relative stability from ageing and slurry experiments; type: physicochemical; conditions: for Relative stability of the polymorphs: at the applied experimental conditions (ageing and slurry), hydrochloride; for Conversion from β- to α-polymorph: ageing and slurry, ambient temperature and 50° C.
Method: as §1, §3, §2

[6] = toluene/methanol (10:3), 50° C.
[7] = toluene/methanol (10:3), ambient

Sequence of dopamine-D2 receptor (P14416 whole entry, species assumed): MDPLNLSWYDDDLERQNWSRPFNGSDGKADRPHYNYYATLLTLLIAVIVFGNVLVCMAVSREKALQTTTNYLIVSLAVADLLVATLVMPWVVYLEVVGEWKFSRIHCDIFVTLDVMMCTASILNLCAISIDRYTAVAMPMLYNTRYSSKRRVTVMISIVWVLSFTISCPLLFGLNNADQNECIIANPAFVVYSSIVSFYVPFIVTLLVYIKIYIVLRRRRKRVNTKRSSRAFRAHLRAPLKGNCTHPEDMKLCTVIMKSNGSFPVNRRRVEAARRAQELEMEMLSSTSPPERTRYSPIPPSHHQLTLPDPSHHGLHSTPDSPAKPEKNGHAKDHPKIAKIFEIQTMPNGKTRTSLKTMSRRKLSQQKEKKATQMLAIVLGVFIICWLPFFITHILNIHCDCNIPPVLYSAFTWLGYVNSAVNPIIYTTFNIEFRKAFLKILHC

In the case of `CN1CCN(c2cccc3[nH]c(=O)oc23)CC1.Cl` [pardoprunox, 7-(4-methyl-1-piperazinyl)benzoxazol-2(3H)-one mono-hydrochloride], the “Functional activity at serotonin 5-HT1A receptor” value [1] is listed as “full serotonin 5-HT1A receptor agonist” and the “Functional activity at dopamine-D2 receptor” value [2] is listed as “partial dopamine-D2 receptor agonist”.
With `CN1CCN(c2cccc3[nH]c(=O)oc23)CC1.Cl` [α-polymorph, 7-[(4-methyl)-1-piperazinyl]-2(3H)-benzoxazolone hydrochloride] the “Crystal modifications by XRPD, slurry experiment” value ([3]; 1,2-dimethoxy ethane, 50° C.) was “α”, the “Crystal modifications by XRPD, slurry experiment” value ([3]; 1,2-dimethoxy ethane, ambient) was “α” and the “Crystal modifications by XRPD, slurry experiment” value ([3]; 96% ethanol, 50° C.) was “α”. For the same molecule, the “Crystal modifications by XRPD, slurry experiment” value ([3]; acetonitrile, 50° C.) was “α”, the “Crystal modifications by XRPD, slurry experiment” value ([3]; acetonitrile, ambient) was “α” and the “Crystal modifications by XRPD, slurry experiment” value ([3]; ethyl acetate/isopropanol (2:1), 50° C.) was “α”. The “Crystal modifications by XRPD, slurry experiment” value ([3]; ethyl acetate/isopropanol (2:1), ambient) was “α”, the “Crystal modifications by XRPD, slurry experiment” value ([3]; methyl ethyl ketone, 50° C.) was “α” and the “Crystal modifications by XRPD, slurry experiment” value ([3]; methyl ethyl ketone, ambient) was “α”. The “Crystal modifications by XRPD, slurry experiment” value [3, 6] was “α”, the “Crystal modifications by XRPD, slurry experiment” value [3, 7] was “α” and the “Crystal modifications by XRPD after ageing” value ([4]; 1,2-dimethoxy ethane, 50° C., hydrochloride) was “α”. The “Crystal modifications by XRPD after ageing” value ([4]; 1,2-dimethoxy ethane, ambient, hydrochloride) was “α”, the “Crystal modifications by XRPD after ageing” value ([4]; 96% ethanol, 50° C.) was “α” and the “Crystal modifications by XRPD after ageing” value ([4]; acetonitrile, 50° C., hydrochloride) was “α”. The “Crystal modifications by XRPD after ageing” value ([4]; acetonitrile, ambient, hydrochloride) was “α”, the “Crystal modifications by XRPD after ageing” value ([4]; ethyl acetate/isopropanol (2:1), 50° C., hydrochloride) was “α” and the “Crystal modifications by XRPD after ageing” value ([4]; ethyl acetate/isopropanol (2:1), ambient, hydrochloride) was “α”. The “Crystal modifications by XRPD after ageing” value ([4]; methyl ethyl ketone, 50° C., hydrochloride) was “α”, the “Crystal modifications by XRPD after ageing” value ([4]; methyl ethyl ketone, ambient, hydrochloride) was “α” and the “Crystal modifications by XRPD after ageing” value [4, 6] was “α”. For the same molecule, the “Crystal modifications by XRPD after ageing” value [4, 7] was “α”, the “Conversion from α- to β-polymorph” value ([5]; ageing and slurry experiments, all solvents) was “Neither in ageing nor in slurry experiments, was conversion from α- to β-polymorph observed” and the “Relative stability of the polymorphs” value ([5]; listed as a-polymorph) was “more stable than the β-polymorph”. For the same molecule, the “Relative stability of the polymorphs” value ([5]; listed as crystal modification a) was “more stable than crystal modification β”.
With `CN1CCN(c2cccc3[nH]c(=O)oc23)CC1.Cl` [β-polymorph, 7-[(4-methyl)-1-piperazinyl]-2(3H)-benzoxazolone hydrochloride] the “Crystal modifications by XRPD, slurry experiment, after seeding” value (from here on “Crystal modifications … after seeding”) ([3]; 96% ethanol, 50° C.) was “α”, the “Crystal modifications by XRPD, slurry experiment, before seeding” value (“Crystal modifications … before seeding” below) ([3]; 96% ethanol, 50° C.) was “α” and the “Crystal modifications … after seeding” value ([3]; 96% ethanol, ambient) was “α”. For the same molecule, the “Crystal modifications … before seeding” value ([3]; 96% ethanol, ambient) was “α”, the “Crystal modifications … after seeding” value ([3]; acetonitrile, 50° C.) was “α” and the “Crystal modifications … after seeding” value [3, 6] was “α”. For the same molecule, the “Crystal modifications … before seeding” value [3, 6] was “α”, the “Crystal modifications … after seeding” value [3, 7] was “α” and the “Crystal modifications by XRPD after ageing” value ([4]; 96% ethanol, 50° C.) was “α”. The “Crystal modifications by XRPD after ageing” value ([4]; 96% ethanol, ambient (ca. 20° C.), hydrochloride) was “α”, the “Crystal modifications by XRPD after ageing” value [4, 6] was “α” and the “Crystal modifications by XRPD after ageing” value [4, 7] was “α”. The “Conversion from β- to α-polymorph” value ([5]; acetonitrile) was “substantial conversion”, the “Conversion from β- to α-polymorph” value ([5]; ethanol and 10:3 toluene/methanol mixture) was “complete conversion” and the “Conversion from β- to α-polymorph” value ([5]; other solvents) was “the conversion was minimal”.
